From patent publication US5225528A, “Cyclic hexapeptide oxytocin antagonists” (priority 1990, dated 1993)
Counter-ions that a name gives are not always drawn. Like-named read-outs stand apart in the source and are kept apart here. Numbered stars: 1 amine (or outer) side, 2 acyl side, 3 side chain; on linkers, the order of the positions; unused ones are H or OH. Square brackets hold non-standard residues; d marks the D form. Peptide text beside a SMILES is read from it. * marks the point of attachment. X2 = O=C(OCc1ccccc1)N1CCN([*:1])[C@H](C(=O)[*:2])C1; NH(2-(imidazol-4-yl)ethyl) = c1ncc(CCN*)[nH]1; dPiz(1,6-dehydro) = O=C(O)[C@H]1CCC=NN1; d2Nal = N[C@H](Cc1ccc2ccccc2c1)C(=O)O; Ethylenediamine = C(CN[*:2])N[*:1]; Pip(4-aza) = O=C(O)[C@@H]1CNCCN1; dNMeF = CN[C@H](Cc1ccccc1)C(=O)O; Pip = O=C(O)[C@@H]1CCCCN1; dPip = O=C(O)[C@H]1CCCCN1; Orn = NCCC[C@H](N)C(=O)O; dNMeA = CN[C@H](C)C(=O)O; Boc = CC(C)(C)OC(=O)*

Key:
AVP-V1 sites = molecular target: T1, AVP-V1 sites (Rattus norvegicus, UniProt P30560); assay: [^3 H]AVP binding to crude membrane preparation of male rat liver (AVP-V1 sites)
T1 construct: crude membrane preparation of male rat liver (AVP-V1 sites); from tissue; host or cells: male rat liver, crude membranes
Experimental: (§1) Nonspecific binding (5-10% of the total binding) was determined using 10 μM unlabeled AVP, and the binding reaction was terminated by filtration as described above for the [^3 H]OT binding assay.

AVP-V2 sites = molecular target: T2, AVP-V2 sites (Rattus norvegicus, UniProt Q00788); assay: [^3 H]AVP binding to crude membrane preparation of male rat kidney medulla (AVP-V2 sites)
T2 construct: male rat liver (AVP-V1 sites) or kidney medulla (AVP-V2 sites); from tissue; host or cells: male rat kidney medulla, crude membranes
Experimental: as §1

uterine OT receptors = molecular target: T3, uterine OT receptors (Rattus norvegicus, UniProt P70536); assay: [^3 H]OT binding to uterine OT receptors, crude membrane preparation of uteri from DES-treated rats
T3 construct: from tissue; host or cells: uterus of DES-treated rats, crude membranes
T3 sequence (P70536 1-388): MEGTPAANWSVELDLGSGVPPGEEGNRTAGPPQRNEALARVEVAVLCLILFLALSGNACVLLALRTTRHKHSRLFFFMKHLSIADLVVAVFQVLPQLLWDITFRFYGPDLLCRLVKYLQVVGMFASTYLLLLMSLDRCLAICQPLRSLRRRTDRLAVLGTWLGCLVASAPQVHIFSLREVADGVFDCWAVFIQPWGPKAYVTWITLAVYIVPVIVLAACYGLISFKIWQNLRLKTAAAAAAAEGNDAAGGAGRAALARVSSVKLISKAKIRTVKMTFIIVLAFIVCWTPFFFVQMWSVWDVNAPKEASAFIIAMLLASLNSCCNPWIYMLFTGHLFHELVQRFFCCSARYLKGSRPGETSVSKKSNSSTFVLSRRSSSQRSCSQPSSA
Experimental: Competition studies were conducted at equilibrium (60 minutes; 22° C.) using 1 nM [^3 H]OT in the following assay buffer: 50 mM Tris-HCl, 5 mM MgCl2, and 0.1% BSA, pH 7.4.

[1] = Receptor Binding Results IC50 (nM) [^3 H]-AVP-V1
[2] = rat kidney medulla membranes, 2 nM [^3 H]AVP, read-out: Receptor Binding Results IC50 (nM) [^3 H]-AVP-V2
[3] = rat uterus membranes, 1 nM [^3 H]OT, read-out: Receptor Binding Results IC50 (nM) [^3 H]OT
[4] = read-out: Receptor Binding Results IC50 (nM) [^3 H]-AVP-V1
[5] = read-out: Receptor Binding Results IC50 (nM) [^3 H]-AVP-V2
[6] = Receptor Binding Results IC50 (nM) [^3 H]OT
[7] = Receptor Binding Results IC50 (nM) [^3 H]-AVP-V2

T1 sequence (P30560 whole entry): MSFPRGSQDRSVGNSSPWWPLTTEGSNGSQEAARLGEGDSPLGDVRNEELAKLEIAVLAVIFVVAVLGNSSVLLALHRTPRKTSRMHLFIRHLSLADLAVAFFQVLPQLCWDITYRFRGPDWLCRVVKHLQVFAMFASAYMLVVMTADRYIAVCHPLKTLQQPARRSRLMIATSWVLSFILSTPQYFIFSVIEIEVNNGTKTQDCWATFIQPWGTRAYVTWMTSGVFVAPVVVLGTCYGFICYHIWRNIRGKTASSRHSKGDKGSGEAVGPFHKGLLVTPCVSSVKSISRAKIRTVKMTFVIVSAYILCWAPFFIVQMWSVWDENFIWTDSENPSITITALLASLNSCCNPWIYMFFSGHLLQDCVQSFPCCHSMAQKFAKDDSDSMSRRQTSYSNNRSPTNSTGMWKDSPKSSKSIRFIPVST
T2 sequence (Q00788 whole entry): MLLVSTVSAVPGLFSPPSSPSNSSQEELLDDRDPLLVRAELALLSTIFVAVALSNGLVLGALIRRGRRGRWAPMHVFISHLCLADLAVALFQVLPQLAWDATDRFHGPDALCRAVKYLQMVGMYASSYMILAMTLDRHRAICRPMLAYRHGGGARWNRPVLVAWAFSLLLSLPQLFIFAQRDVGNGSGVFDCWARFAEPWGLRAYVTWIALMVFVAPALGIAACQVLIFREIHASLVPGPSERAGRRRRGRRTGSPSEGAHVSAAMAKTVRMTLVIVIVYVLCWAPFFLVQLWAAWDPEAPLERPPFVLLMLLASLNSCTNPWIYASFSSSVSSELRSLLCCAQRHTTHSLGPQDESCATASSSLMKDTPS

Compound | IC50 (AVP-V1 sites; [1]) | IC50 (AVP-V2 sites; [2]) | IC50 (uterine OT receptors; [3]) | further results
CC[C@H](C)[C@@H]1NC(=O)[C@@H](Cc2ccccc2)NC(=O)[C@@H]2CCCN2C(=O)[C@@H](Cc2ccccc2)N(C)C(=O)[C@H](CC(=O)NCCc2c[nH]cn2)NC(=O)[C@H]2CCCCN2C1=O [Example 120, c-[D-Phenylalanyl-L-isoleucyl-D-pipecolyl-N^β -(imidazolylethyl)-L-asparagyl-N-methyl-D-phenylalanyl-L-prolyl]] (cyclo(D(NH(2-(imidazol-4-yl)ethyl))[dNMeF]P[dF]I[dPip])) | 10000 nM | 10000 nM | 120 nM | 
CC[C@H](C)[C@@H]1NC(=O)[C@@H](Cc2ccccc2)NC(=O)[C@@H]2CCCN2C(=O)[C@@H](Cc2ccccc2)N(C)C(=O)[C@H](CC(=O)NCCN)NC(=O)[C@H]2CCCCN2C1=O [Example 119, c-[D-Phenylalanyl-L-isoleucyl-D-pipecolyl-N^β -(aminoethyl)-L-asparagyl-N-methyl-D-phenylalanyl-L-prolyl]] (cyclo(D(Ethylenediamine)[dNMeF]P[dF]I[dPip])) |  |  | 260 nM | IC50 (AVP-V1 sites; [4]): 7300 nM; IC50 (AVP-V2 sites; [5]): 3100 nM
CC[C@H](C)[C@@H]1NC(=O)[C@@H](Cc2ccccc2)NC(=O)[C@@H]2CCCN2C(=O)[C@@H](Cc2ccccc2)N(C)C(=O)[C@H](CC(=O)O)NC(=O)[C@H]2CCCCN2C1=O [Example 116, c-[D-Phenylalanyl-L-isoleucyl-D-pipecolyl-L-aspartyl-N-methyl-D-phenylalanyl-L-prolyl]] (cyclo(D[dNMeF]P[dF]I[dPip])) | > 10000 nM | > 10000 nM | 1450 nM | 
CC[C@H](C)[C@@H]1NC(=O)[C@@H](Cc2ccccc2)NC(=O)[C@@H]2CCCCN2C(=O)[C@@H](Cc2ccccc2)N(C)C(=O)[C@@H]2CCCCN2C(=O)[C@H]2CCCCN2C1=O [Example 108, c-[D-phenylalanyl-L-isoleucyl-D-pipecolyl-L-pipecolyl-N-methyl-D-phenylalanyl-L-pipecolyl]] (cyclo(I[dPip][Pip][dNMeF][Pip][dF])) | 10000 nM | 10000 nM |  | IC50 (uterine OT receptors; [6]): 655 nM
CC[C@H](C)[C@@H]1NC(=O)[C@@H](Cc2ccc(O)cc2)NC(=O)[C@@H]2CCCN2C(=O)[C@@H](Cc2ccccc2)N(C)C(=O)[C@H](CCCCN)NC(=O)[C@H]2CCCCN2C1=O [Example 147, C-[D-Tyrosyl-L-isoleucyl-D-pipecolyl-L-lysyl-D-(N-methyl)phenylalanyl-L-prolyl]] (cyclo(I[dPip]K[dNMeF]P[dY])) | 10000 nM | 10000 nM | 860 nM | 
CC[C@H](C)[C@@H]1NC(=O)[C@@H](Cc2ccccc2)NC(=O)[C@@H]2CCCN2C(=O)[C@@H](Cc2ccccc2)N(C)C(=O)[C@H](Cc2cnc[nH]2)NC(=O)[C@H]2CCCCN2C1=O [Example 13] (cyclo(H[dNMeF]P[dF]I[dPip])) | > 1000 nM |  | 150 nM | IC50 (AVP-V2 sites; [7]): > 1000 nM
CC[C@H](C)[C@@H]1NC(=O)[C@@H](Cc2ccccc2)NC(=O)[C@@H]2CCCN2C(=O)[C@@H](C)N(C)C(=O)[C@@H]2CCCCN2C(=O)[C@H]2CCCCN2C1=O [Example 5, Cyclo[D-phenyalanyl-L-isoleucyl-D-pipecolyl-L-pipecolyl-D-(N^α methyl)alanyl-L-prolyl]] (cyclo(I[dPip][Pip][dNMeA]P[dF])) | > 10000 nM | > 10000 nM |  | IC50 (uterine OT receptors; [6]): 930 nM
CN1C(=O)[C@@H]2CCCCN2C(=O)[C@H]2CCCCN2C(=O)[C@H](Cc2ccccc2)NC(=O)[C@@H](Cc2c[nH]c3ccccc23)NC(=O)[C@@H]2CCCN2C(=O)[C@H]1Cc1ccccc1 [Example 31, Cyclo[D-Tryptophanyl-L-phenylalanyl-D-pipecolyl-L-pipecolyl-D-(N^α -methyl)phenylalanyl-L-prolyl]] (cyclo(F[dPip][Pip][dNMeF]P[dW])) | > 10000 nM |  | 100 nM | IC50 (AVP-V2 sites; [7]): > 1000 nM
CC[C@H](C)[C@@H]1NC(=O)[C@@H](Cc2ccc3ccccc3c2)NC(=O)[C@@H]2CCCN2C(=O)[C@@H](Cc2ccccc2)N(C)C(=O)[C@@H]2CNCCN2C(=O)[C@H]2CCCCN2C1=O [Example 171, c-[D-2-Naphthylalanyl-L-isoleucinyl-D-pipecolyl-L-piperazin-2-yl-D-(N^α -methyl)phenylalanyl-L-prolyl]] (cyclo(I[dPip][Pip(4-aza)][dNMeF]P[d2Nal])) |  |  | 3.9 nM | IC50 (AVP-V1 sites; [4]): 15000 nM; IC50 (AVP-V2 sites; [5]): 335 nM
CC[C@H](C)[C@@H]1NC(=O)[C@@H](Cc2c[nH]c3ccccc23)NC(=O)[C@@H]2CCCN2C(=O)[C@@H](Cc2ccccc2)N(C)C(=O)[C@H](CCCN)NC(=O)[C@H]2CCC=NN2C1=O [Example 127, c-[D-Tryptophanyl-L-isoleucyl-D-Δ-piperazyl-L-ornithyl-N-methyl-D-phenylalanyl L-prolyl]] (cyclo(I[dPiz(1,6-dehydro)][Orn][dNMeF]P[dW])) |  | 330 nM |  | IC50 (AVP-V1 sites; [4]): 1600 nM; IC50 (uterine OT receptors; [6]): 22 nM
CC[C@H](C)[C@@H]1NC(=O)[C@@H](Cc2c[nH]c3ccccc23)NC(=O)[C@@H]2CCCN2C(=O)[C@@H](Cc2c[nH]cn2)NC(=O)[C@H](CCCNC(=O)OC(C)(C)C)NC(=O)[C@H]2CCCCN2C1=O [Example 129, c-[D-Tryptophanyl-L-isoleucyl-D-pipecolyl-(N^δ -Boc)-L-ornithyl-D-histidyl-L-prolyl] acetate salt] (cyclo(I[dPip][Orn](Boc)[dH]P[dW])) | 10000 nM | 10000 nM | 100 nM | 
c-[D,L-3-(3-(5-Methyl)indolyl)alanyl-L-isoleucyl-D-pipecolyl-L-pipecolyl-D- histidyl-L-prolyl] [Example 154] |  | 7300 nM | 680 nM | IC50 (AVP-V1 sites; rat liver membranes, 1 nM [^3 H]AVP, read-out: Receptor Binding Results IC50 (nM) [^3 H]-AVP-V1): 13000 nM
CC[C@H](C)[C@@H]1NC(=O)[C@@H](Cc2ccccc2)NC(=O)[C@@H]2CCCN2C(=O)[C@@H](Cc2ccccc2)N(C)C(=O)[C@@H]2CCCCN2C(=O)[C@H]2CCC=NN2C1=O [Example 112, c-[D-Phenylalanyl-L-isoleucyl-D-Δ-piperazyl-L-pipecolyl-N-methyl-D-phenylalanyl-L-prolyl]] (cyclo(I[dPiz(1,6-dehydro)][Pip][dNMeF]P[dF])) |  |  | 14.7 nM | IC50 (AVP-V1 sites; [4]): 3450 nM; IC50 (AVP-V2 sites; [5]): 1170 nM
CC[C@H](C)[C@@H]1NC(=O)[C@@H](Cc2ccccc2)NC(=O)[C@@H]2CCCN2C(=O)[C@@H](Cc2ccccc2)N(C)C(=O)[C@H](CO)NC(=O)[C@H]2CCCN2C1=O [Example 114, c-[D-Phenylalanyl-L-isoleucyl-D-prolyl-L-seryl-N-methyl-D-phenylalanyl-L-prolyl]] (cyclo(I[dP]S[dNMeF]P[dF])) | > 10000 nM | > 10000 nM | 675 nM | 
CC[C@H](C)[C@@H]1NC(=O)[C@@H](Cc2ccc3ccccc3c2)NC(=O)[C@@H]2CCCN2C(=O)[C@@H](Cc2c[nH]cn2)NC(=O)[C@@H]2CNCCN2C(=O)[C@H]2CCCCN2C1=O [Example 159, c-[D-2-Naphthylalanyl-L-isoleucyl-D-pipecolyl-L-piperazin-2-yl-D-histidyl-L-prolyl]] (cyclo(I[dPip][Pip(4-aza)][dH]P[d2Nal])) |  |  | 1.8 nM | IC50 (AVP-V1 sites; [4]): 4650 nM; IC50 (AVP-V2 sites; [5]): 690 nM
CC[C@H](C)[C@@H]1NC(=O)[C@@H](Cc2c[nH]c3ccccc23)NC(=O)[C@@H]2CCCN2C(=O)[C@@H](Cc2ccccc2)NC(=O)[C@@H]2CN(C(=O)OCc3ccccc3)CCN2C(=O)[C@H]2CCCCN2C1=O [Example 89, c-[D-Tryptophanyl-L-isoleucinyl-D-pipecolyl-L-piperazin-2-yl(4-Cbz)-D-phenylalanyl-L-prolyl]] (cyclo(I[dPip][X2][dF]P[dW])) | > 10000 nM |  |  | IC50 (AVP-V2 sites; [7]): > 1000 nM; inhibition at 0.1 µM (uterine OT receptors; 1 h, @ 100 (nM), read-out: [^3 H]OT: percent inhibition of radioligand at the given concentration): 35%
CC[C@H](C)[C@@H]1NC(=O)C(Cc2c[nH]c3ccc(F)cc23)NC(=O)[C@@H]2CCCN2C(=O)[C@@H](Cc2c[nH]cn2)NC(=O)[C@@H]2CCCCN2C(=O)[C@H]2CCCCN2C1=O (single isomer, unassigned) [157 higher Rf] | 10000 nM | > 10000 nM | 590 nM | 
CC[C@H](C)[C@@H]1NC(=O)[C@@H](Cc2ccc3ccccc3c2)NC(=O)[C@@H]2CCCN2C(=O)[C@@H](Cc2c[nH]cn2)NC(=O)[C@@H]2CN(C(=O)OCc3ccccc3)CCN2C(=O)[C@H]2CCCCN2C1=O [Example 158, c-[D-2-Naphthylalanyl-L-isoleucyl-D-pipecolyl-L-piperazin-2-yl-(4-carbobenzyloxy)-D-histidyl-L-prolyl]] (cyclo(I[dPip][X2][dH]P[d2Nal])) | > 1000 nM |  |  | inhibition at 1 µM (AVP-V2 sites; 0.5 h, @ 1,000 (nM), read-out: [^3 H]-AVP-V2: percent inhibition of radioligand at the given concentration): 68%; inhibition at 0.01 µM (uterine OT receptors; 1 h, @ 10 (nM), read-out: [^3 H]OT: percent inhibition of radioligand at the given concentration): 60%
